Laboratory results published in patent US10799505B2, “Crystalline form of (S)-N-(5-((R)-2-(2,5-difluorophenyl)-pyrrolidin-1-yl)-pyrazolo[1,5-A]pyrimidin-3-yl)-3-hydroxypyrrolidine-1-carboxamide hydrogen sulfate” (Array BioPharma, Inc., priority 2014, dated 2020).
Counter-ions that a name gives are not always drawn.

Legend:
[1] = Phase 1 dose escalation study, safety; conditions: for dose limiting toxicity: one patient
Description: In patients with measurable disease, efficacy is assessed per RECIST 1.1 criteria.
Response is measured by RECIST Criteria, version 1.1. Serum is collected for pharmacokinetic analysis on Cycle 1 Day 1 and Day 8. Safety information is collected on all patients and the definition of dose-limiting toxicity applies to adverse events regardless of relationship to investigational product.

[2] = system: xenograph (human) tumor derived from CUTO-3F cell line; test: Xenograft tumor growth in mice, CUTO-3F; type: in vivo; conditions: CUTO-3F xenograft, 60 or 200 mg/kg daily oral
From the text: (§1) The three different cancer cell lines, the CUTO-3F cell line, the KM12 cell line, and the MO-91 cell line, each express a different Trk gene fusion. […] Following implantation of one of these three different xenograph (human) tumors in mice, the change in the volume of each tumor was monitored.

[3] = system: KM12 colorectal cancer cells harboring TPM3-NTRK1 fusion; test: Cell proliferation assay (Cell Titer 96 MTS), KM12; type: cell-based; conditions: Homo sapiens, KM12, 72 h, read-out: IC50, cell proliferation
Description: (§3) The KM12 cell line is a colorectal cancer cell line harboring the TPM3-NTRK1 fusion (Vaishnavi et al., Nature Med. 19:1469-1472, 2013). The MO-91 cell line is derived from an acute myeloid leukemia patient harboring the ETV6-NTRK3 fusion (Taipale et al., Nature Biotech. 31:630-637, 2013).
(§4) All proliferation assays were performed in media supplemented with 5% FBS as previously described using Cell Titer 96 MTS (Promega) (Bouhana et al., EORTC-NCI-AACR 26th Symposium on Molecular Targets and Cancer Therapeutics, Barcelona, Spain 2014). Cells were seeded 500-2000 cells/well and treated for 72 hours at the drug concentrations described on each graph. Each assay was performed in triplicate in at least 3 independent biological replicates. Data were plotted and IC50 values calculated using GraphPad software.

[4] = system: TEL-TRKC oncoprotein, pAKT, and pERK1/2; test: Immunoblot of phosphorylation in MO-91 cells; type: cell-based, human; conditions: low doses, 2 hours
From the text: (§2) Briefly, cells were lysed in RIPA buffer with Halt Protease and Phosphatase Inhibitor Cocktail (Thermo Scientific) and diluted in loading buffer (LI-COR Biosciences). The membranes were scanned and analyzed using the Odyssey Imaging System and software (LI-COR). The following antibodies were used from Cell Signaling: pTRK Y490 (rabbit polyclonal, #9141), pERK1/2 XP T202/Y204 (#9101), total ERK1/2, pAKT S473 (rabbit mAb, #4060), and total AKT mouse clone D3A7 (#2920). TRK (C-14) rabbit polyclonal antibody was purchased from Santa Cruz Biotechnology. GAPDH (MAB374) and pTYR (4G10) are from Millipore.

[5] = system: MPRIP-TRKA oncoprotein and ERK1/2; test: Immunoblot of phosphorylation in CUTO-3F cells; type: cell-based, human; conditions: low doses, 2 hours
From the text: as §2

[6] = system: TPM3-TRKA, pAKT, and pERK1/2; test: Immunoblot of phosphorylation in KM12 cells; type: cell-based, human; conditions: low doses, 2 hours
From the text: as §2

[7] = system: TRKA/B/C; test: Target inhibition judged from unbound drug levels in Phase 1 study; type: in vivo, human; conditions: all dose levels
[8] = Accelerated stability, open vials in LDPE bag, 40° C./75% RH, five weeks; type: physicochemical
Description: Upon removal from the chamber, the samples were physically characterized by appearance, KF, TGA, DSC, XRD and PLM. The samples were also analyzed by HPLC for chromatographic purity, chiral integrity and potency. Where applicable, the data presented in the stability portion also includes the original T=0 data for comparison purposes. The data can be seen in Tables 25-29 and FIGS. 40-44.

[9] = system: undifferentiated sarcoma with LMNA-NTRK1 fusion; test: Phase 1 trial, patient with undifferentiated sarcoma (case report); type: in vivo, human; conditions: one patient
From the text: The patient started cycle 1 day 1 three days later. The patient was seen weekly for pharmacokinetic and safety analysis.

[10] = Dynamic vapor sorption (DVS-1 system); type: physicochemical
Description: For the DVS measurement a sample of crystalline form (I-HS) was cycled through changing humidity conditions to determine its hygroscopicity. The sample was analyzed using a Surface Measurement System DVS-1 Dynamic Vapor Sorption System. […] Data was collected in 1 minute intervals. Nitrogen was used as the carrier gas. […] After completion of the sorption cycle, the sample was dried using the same procedure, but all the way down to 0% RH and finally taken back to the starting point of 20% RH. The weight change during the sorption/desorption cycles were plotted, allowing for the hygroscopic nature of the sample to be determined.

[11] = Dynamic vapor sorption / humidity exposure (IGAsorp, 25° C.); type: physicochemical; conditions: for hygroscopicity: DVS, hydrogen sulfate
Description: • 1. The hygroscopicity was studied at 25° C. using an IGAsorp analyzer. • 2. About 15 mg of sample was placed in a tared mesh sample holder at an initial ambient room humidity setting of ˜35%. • 3. A total wet/dry nitrogen flow rate of 250 cc/min is used throughout the study. • 4. […] The maximum time allowed at any one humidity set point was 120 min. The sample was maintained under dry N2 after the cycle was completed. Percent weight gain was calculated based on the dry weight basis.

[12] = system: CUTO-3F lung adenocarcinoma cells harboring MPRIP-NTRK1 fusion; test: Cell proliferation assay (Cell Titer 96 MTS), CUTO-3F; type: cell-based; conditions: Homo sapiens, 72 h, read-out: IC50, cell proliferation
Description: as §3, §4

[13] = system: xenograph (human) tumor derived from MO-91 cell line; test: Xenograft tumor growth in mice, MO-91; type: in vivo; conditions: MO-91 xenograft, 60 or 200 mg/kg daily oral
From the text: as §1

[14] = system: MO-91 acute myeloid leukemia cells harboring ETV6-NTRK3 fusion; test: Cell proliferation assay (Cell Titer 96 MTS), MO-91; type: cell-based; conditions: Homo sapiens, MO-91, 72 h, read-out: IC50, cell proliferation
Description: as §3, §4

[15] = Stability on aluminum slide at 40° Celsius/75% RH; type: physicochemical; conditions: I-HS 10 days; HCl after 1 hour; HBr after 2 weeks; mesylate overnight
[16] = Phase 1 dose escalation study, pharmacokinetics; type: in vivo, human; conditions: oral, patients
[17] = system: HCC78 cells expressing SLC34A2-ROS1 fusion protein; conditions: HCC78 cell line
Description: as §4

[18] = system: TRKA-SHC1 complexes; test: TRK-SHC1 proximity ligation assay in CUTO-3 cells; type: cell-based, human; conditions: 100 nM, 2 hours, vs DMSO
Description: Cells were seeded onto glass coverslips (in a 48 well plate) or chamber slides at 25-75 k cells/well. Cells were treated with the indicated doses and times then fixed for 15 minutes by shaking at room temperature in 4% paraformaldehyde. The cells were rinsed twice in PBS, and then the Duolink® in situ PLA® kit from SigmaAldrich in mouse/rabbit (Red) was used according to the manufacturer's protocol (catalog # DUO92101). The antibody concentrations were optimized using immunofluorescence prior to PLA experiments. The FFPE tissue PLAs from mice or patients were prepared as described in histology. Additionally, samples were treated with 300 mM glycine for 15 minutes prior to the blocking step, otherwise the assay was performed according to the manufacturer's protocol. The cells were mounted using Prolong® gold anti-fade reagent (with DAPI) and cured overnight prior to imaging. […] The following antibodies were used: TRK (C17F1) and ALK (D5F3) from Cell Signaling, SHC1 from Novus, and Grb2 (610111) from BD.

[19] = system: xenograph (human) tumor derived from KM12 cell line; test: Xenograft tumor growth in mice, KM12; type: in vivo; conditions: 60 or 200 mg/kg daily oral
From the text: as §1

[20] = system: solid tumors with NTRK gene fusions; test: Phase 1 study, tumor response (RECIST 1.1) in patients with NTRK fusions; type: in vivo, human
Description: Three of the 23 patients harbored NTRK-fusions and were treated at either 100 or 150 mg BID.

[21] = 23 patients, 50 mg QD-150 mg BID

O=C(Nc1cnn2ccc(N3CCC[C@@H]3c3cc(F)ccc3F)nc12)N1CC[C@H](O)C1 [crystalline form (I-HS), (S)—N-(5-((R)-2-(2,5-difluorophenyl)-pyrrolidin-1-yl)-pyrazolo[1,5-a]pyrimidin-3-yl)-3-hydroxypyrrolidine-1-carboxamide hydrogen sulfate]
Grade 1 and 2 anemia, frequency ([1]; 23 patients): 22% | Grade 1 and 2 dizziness, frequency ([1]; 23 patients): 26% | Grade 1 and 2 fatigue, frequency ([1]; 23 patients): 35% | MTD [1, 21]: has not been reached | tolerability [1, 21]: well tolerated | dose limiting toxicity ([1]; Dose Level 100 mg BID): delirium, grade 3 unrelated | dose limiting toxicity ([1]; Dose Level 150 mg BID): elevated AST, grade 3 | adverse events attributed to drug ([1]; sarcoma patient, after four months of dosing): did not have any adverse events | drug-related adverse events ([1]; sarcoma patient, first 4-week period): No drug-related adverse events were noted | tumor growth (change in volume) [2]: effectively halt the growth, or decrease the rate of growth | IC50 [3]: < 0.01 µM | phosphorylation of TEL-TRKC, pAKT, pERK1/2 [4]: inhibition in the phosphorylation | phosphorylation of MPRIP-TRKA and ERK1/2 [5]: inhibition of phosphorylation | phosphorylation of TPM3-TRKA, pAKT, pERK1/2 [6]: inhibition of the phorphorylation | inhibition of TRKA/B/C at peak concentrations [7]: approximately 98% | Appearance ([8]; 40° C./75% RH, 5 wks): Orange Powder | Assay (HPLC) ([8]; 40° C./75% RH, 5 wks): 79.6% | Chiral Potency (HPLC) ([8]; 40° C./75% RH, 5 wks): 99.6% | KF (water content) ([8]; 40° C./75% RH, 5 wks): 0.21 w/w % | Peak Area Percent, RRT 0.793 ([8]; 40° C./75% RH, 5 wks): 0.07 | Peak Area Percent, RRT 0.863 ([8]; 40° C./75% RH, 5 wks): 0.00 | Peak Area Percent, RRT 0.981 ([8]; 40° C./75% RH, 5 wks): 0.00 | Peak Area Percent, RRT 1.000 ([8]; 40° C./75% RH, 5 wks): 99.93 | Peak Area Percent, RRT 1.535 ([8]; 40° C./75% RH, 5 wks): 0.00 | Total Impurities (HPLC) ([8]; 40° C./75% RH, 5 wks): 0.07% | change of API chemical purity ([8]; 40° C./75% RH, five weeks): did not change significantly | Appearance ([8]; time point 0 wks): Orange Powder | Assay (HPLC) ([8]; time point 0 wks): 79.4% | Chiral Potency (HPLC) ([8]; time point 0 wks): 99.6% | KF (water content) ([8]; time point 0 wks): 0.28 w/w % | Peak Area Percent, RRT 0.793 ([8]; time point 0 wks): 0.07 | Peak Area Percent, RRT 0.863 ([8]; time point 0 wks): 0.00 | Peak Area Percent, RRT 0.981 ([8]; time point 0 wks): 0.00 | Peak Area Percent, RRT 1.000 ([8]; time point 0 wks): 99.86 | Peak Area Percent, RRT 1.535 ([8]; time point 0 wks): 0.07 | Total Impurities (HPLC) ([8]; time point 0 wks): 0.14% | response by RECIST 1.1 ([9]; 100 mg twice daily, CT before cycle 2 and cycle 3): partial response | oxygen saturation on room air ([9]; on treatment, baseline 90% with 5 L supplemental oxygen): 97% | CA125 tumor marker levels ([9]; over cycle 1): normalized | change in form during DVS (post-DVS XRPD) [10]: no change | hygroscopicity ([10]; DVS isotherm, FIG. 5): non-hygroscopic | DVS (outcome) ([10]; HCl: at 50-60% RH): RH No change | DVS weight gain ([10]; at 80% RH): ~1% gain at 80% | DVS weight gain ([10]; at 95% RH): A 2% gain at 95% | increase in mass during sorption cycle ([10]; between 0% and 90% RH): about 1.7% | hygroscopicity [11]: non-hygroscopic | hygroscopicity ([11]; listed as Crystalline form (I-HS)): not hygroscopic | mass gained in DVS ([11]; at 80% RH): 1% | IC50 [12]: < 0.1 µM | tumor growth (change in volume) [13]: effectively halt the growth, or decrease the rate of growth | IC50 [14]: < 0.01 µM | Stability at 40° Celsius/75% RH (aluminum slide) [15]: No form change | exposure versus dose [16]: increased in approximate proportion with dose | time to maximum plasma concentrations following dosing [16]: 30 to 60 min | inhibition of cellular proliferation [17]: did not inhibit | TRKA-SHC1 complexes (PLA signal) [18]: disruption of TRKA-SHC1 complexes | tumor growth (change in volume) [19]: effectively halt the growth, or decrease the rate of growth | response (RECIST 1.1) in three NTRK-fusion patients ([20]; 100 or 150 mg BID): partial response | tumor decrease ([20]; c-kit-negative GIST, ETV6-NTRK3 fusion, 2 cycles+): 30% | tumor decrease ([20]; mammary analogue secretory carcinoma, ETV6-NTRK3 fusion, 2 cycles+): 64% | tumor decrease ([20]; undifferentiated sarcoma, LMNA-NTRK1 fusion, 7 cycles+): 59%
